Values joined by “and” are separate entries in the source; they are usually repeats but may differ in a detail not shown here. Equal values may be shown once. Read-outs that look alike come from different tables or passages of the source. Blank lines part the entries; values can stand above or below the molecule they belong to.
Columns and labels:
[1] = test system: Puccinia recondita f. sp. tritici; experiment: Puccinia recondita f. sp. tritici / wheat / leaf disc preventative (brown rust); format: in vivo; settings: foliar, vs untreated control
Description: (§1) Leaf disks or leaf segments of various plant species are cut from plants grown in a greenhouse. The cut leaf disks or segments are placed in multiwell plates (24-well format) onto water agar. The leaf disks are sprayed with a test solution before (preventative) or after (curative) inoculation. Compounds to be tested are prepared as DMSO solutions (max. 10 mg/mL) which are diluted to the appropriate concentration with 0.025% Tween20 just before spraying. The inoculated leaf disks or segments are incubated under defined conditions (temperature, relative humidity, light, etc.) according to the respective test system. A single evaluation of disease level is carried out 3 to 14 days after inoculation, depending on the pathosystem. Percent disease control relative to the untreated check leaf disks or segments is then calculated.
Wheat leaf segments cv. Kanzler are placed on agar in multiwell plates (24-well format) and sprayed with the formulated test compound diluted in water. The leaf disks are inoculated with a spore suspension of the fungus 1 day after application. The inoculated leaf segments are incubated at 19° C. and 75% rh under a light regime of 12 h light/12 h darkness in a climate cabinet and the activity of a compound is assessed as percent disease control compared to untreated when an appropriate level of disease damage appears in untreated check leaf segments (7-9 days after application).

[2] = test system: Phakopsora pachyrhizi; experiment: Phakopsora pachyrhizi / soybean / leaf disc preventative (Asian soybean rust); format: in vivo; settings: foliar, 288 h, vs untreated control
Description: as §1
Soybean leaf disks are placed on agar in multiwell plates (24-well format) and sprayed with test solutions. After drying, the leaf disks are inoculated with a spore suspension of the fungus. After appropriate incubation the activity of a compound is assessed approx.12 dpi (days after inoculation) as preventive fungicidal activity.

[3] = test system: Glomerella lagenarium (Colletotrichum lagenarium); experiment: Glomerella lagenarium (Colletotrichum lagenarium) liquid culture / cucumber / preventative (anthracnose); format: cell-based; settings: Colletotrichum orbiculare, vs untreated control
Description: Mycelia fragments or conidia suspensions of a fungus prepared either freshly from liquid cultures of the fungus or from cryogenic storage, are directly mixed into nutrient broth. DMSO solutions of the test compound (max. 10 mg/mL) are diluted with 0.025% Tween20 by a factor of 50 and 10 μl of this solution is pipetted into a microtiter plate (96-well format). The nutrient broth containing the fungal spores/mycelia fragments is then added to give an end concentration of the tested compound. The test plates are incubated in the dark at 24° C. and 96% relative humidity. The inhibition of fungal growth is determined photometrically after 2 to 7 days, depending on the pathosystem, and percent antifungal activity relative to the untreated check is calculated.
Conidia of the fungus from cryogenic storage are directly mixed into nutrient broth (PDB potato dextrose broth). After placing a (DMSO) solution of test compound into a microtiter plate (96-well format), the nutrient broth containing the fungal spores is added.

[4] = test system: Puccinia recondita f. sp. tritici; experiment: Puccinia recondita f. sp. tritici / wheat / leaf disc curative (brown rust); format: in vivo; settings: foliar, vs untreated control
Description: Leaf disks or leaf segments of various plant species are cut from plants grown in a greenhouse. The cut leaf disks or segments are placed in multiwell plates (24-well format) onto water agar. The leaf disks are sprayed with a test solution before (preventative) or after (curative) inoculation. […] The inoculated leaf disks or segments are incubated under defined conditions (temperature, relative humidity, light, etc.) according to the respective test system. […] Percent disease control relative to the untreated check leaf disks or segments is then calculated. Wheat leaf segments cv. Kanzler are placed on agar in multiwell plates (24-well format). The leaf segments are inoculated with a spore suspension of the fungus. […] The formulated test compound diluted in water is applied 1 day after inoculation.

[5] = test system: Glomerella lagenarium syn. Colletotrichum lagenarium; experiment: Example B1: mixtures, preventative activity against Glomerella lagenarium syn. Colletotrichum lagenarium, liquid culture; format: cell-based
Description: (§2) This occurs whenever the action of an active ingredient combination is greater than the sum of the actions of the individual components. The action to be expected E for a given active ingredient combination obeys the so-called COLBY formula and can be calculated as follows (COLBY, S. R. “Calculating synergistic and antagonistic responses of herbicide combination”. Weeds, Vol. 15, pages 20-22; 1967):
(§3) If the action actually observed (O) is greater than the expected action (E), then the action of the combination is super-additive, i.e. there is a synergistic effect. In mathematical terms, synergism corresponds to a positive value for the difference of (O-E). In the case of purely complementary addition of activities (expected activity), said difference (O-E) is zero. A negative value of said difference (O-E) signals a loss of activity compared to the expected activity.
(§4) Conidia of the fungus from cryogenic storage were directly mixed into nutrient broth (PDB potato dextrose broth). A DMSO solution of the test compounds was placed into a microtiter plate (96-well format) and the nutrient broth containing the fungal spores was added to it.
(§5) Fungicidal activity was evaluated on a 100-0 scale (100=no disease growth; 0=well completely covered by mycelium).

[6] = test system: Septoria glycines; experiment: Example B2: mixtures, preventative activity against Septoria glycines (brown spot), liquid culture; format: cell-based; settings: for Activity (%) B: component B alone
Description: as §2, §3
as §4, with “fungus harvested” for “fungus”, “a fresh culture grown on artificial media,” for “cryogenic storage”
as §5

[7] = test system: Septoria tritici; experiment: Example B3: mixtures, preventative activity against Septoria tritici (leaf blotch), liquid culture; format: cell-based
Description: as §2, §3, §4, §5

[8] = test system: Mycosphaerella arachidis syn. Cercospora arachidicola; experiment: Example B4: mixtures, preventative activity against Mycosphaerella arachidis syn. Cercospora arachidicola (brown leaf spot of peanut), liquid culture; format: cell-based
Description: as §2, §3, §4
Cercospora arachidicola (Brown leaf spot of peanut). Fungicidal activity was evaluated on a 100-0 scale (100=no disease growth; 0=well completely covered by mycelium).

[9] = test system: Phakopsora pachyrhizi; experiment: Example B5: preventative activity against Phakopsora pachyrhizi (soybean rust), whole soybean plants sprayed, leaf disks inoculated; format: in vivo; settings: applied alone
Description: Whole soybean plants are treated with the recited active ingredients 4 weeks after planting. 1 day after spraying leaf disks are cut from the first trifoliate leaf. Five repetitions at each rate are conducted. The leaf disks are inoculated with Phakopsora pachyrhizi (Asian soybean rust) one day after treatment.
Evaluation of the leaf disks is conducted 11 to 14 days after inoculation and the activity is derived from the relation of the treated vs untreated, infested check (100=no disease, no damage to the leaf, 0=high infestation, leaf damaged heavily). The rates of the active ingredients used are given in the tables as g active ingredient (a.i.)/ha.

[10] = Phakopsora pachyrhizi, foliar, read-out: Observed Activity (%) (% of untreated) against Phakopsora pachyrhizi
[11] = Phakopsora pachyrhizi, foliar, 4.5 g/ha, read-out: Observed Activity (%) (% of untreated) against Phakopsora pachyrhizi

melting point: 110 to 113 °C
Structure (SMILES): CCC(C)c1ccn(-c2ccc(C)c(O/C(=C\OC)C(=O)OC)c2)n1 (stereo not shown) [X.02, methyl (Z)-3-methoxy-2-[2-methyl-5-(3-sec-butylpyrazol-1-yl)phenoxy]prop-2-enoate]
pest or weed control at 200 ppm [1]: ≥ 80%
pest or weed control at 67 ppm [2]: ≥ 80%
inhibition of growth at 6.7 ppm [3]: ≥ 80%

melting point: 94 to 97 °C
Structure (SMILES): CO/C=C(\Oc1cc(-n2ccc(OC(C)C)n2)ccc1C)C(=O)OC [X.03, methyl (Z)-2-[5-(3-isopropoxypyrazol-1-yl)-2-methyl-phenoxy]-3-methoxy-prop-2-enoate]
pest or weed control at 200 ppm [1]: ≥ 80%
pest or weed control at 200 ppm [4]: ≥ 80%
pest or weed control at 67 ppm [2]: ≥ 80%
inhibition of growth at 6.7 ppm [3]: ≥ 80%

melting point: 154 to 156 °C
Structure (SMILES): CO/C=C(\Oc1cc(-n2ccc(C(F)(F)F)n2)ccc1C)C(=O)OC [X.08, methyl (Z)-3-methoxy-2-[2-methyl-5-[3-(trifluoromethyl)pyrazol-1-yl]phenoxy]prop-2-enoate]
pest or weed control at 200 ppm [1]: ≥ 80%
pest or weed control at 67 ppm [2]: ≥ 80%
inhibition of growth at 6.7 ppm [3]: ≥ 80%
inhibition at 0.03 ppm ([5]; Colletotrichum orbiculare, component A alone, 0.03 ppm): 0%
inhibition at 0.1 ppm ([5]; Colletotrichum orbiculare, component A alone, 0.1 ppm, read-out: Activity (%) A): 0%
inhibition at 0.00625 ppm ([6]; Septoria glycines, component A alone, 0.00625 ppm): 0%
inhibition at 0.025 ppm ([6]; Septoria glycines, component A alone, 0.025 ppm): 70%
inhibition at 0.03 ppm ([6]; Septoria glycines, component A alone, 0.03 ppm, read-out: Activity (%) A): 70%
inhibition at 0.05 ppm ([6]; Septoria glycines, component A alone, 0.05 ppm): 90%
inhibition at 0.1 ppm ([6]; Septoria glycines, component A alone, 0.1 ppm, read-out: Activity (%) A): 70%
inhibition at 0.00625 ppm ([7]; Zymoseptoria tritici, component A alone, 0.00625 ppm, 100-0 scale): 0%
inhibition at 0.025 ppm ([7]; Zymoseptoria tritici, component A alone, 0.025 ppm, 100-0 scale): 70%
inhibition at 0.03 ppm ([7]; Zymoseptoria tritici, component A alone, 0.03 ppm, 100-0 scale, read-out: Activity (%) A): 50%
inhibition at 0.1 ppm ([7]; Zymoseptoria tritici, component A alone, 100-0 scale, read-out: Activity (%) A): 70%
Activity (%) A ([7]; component A alone, 0.025 ppm, 100-0 scale): 90%
inhibition at 0.00625 ppm ([8]; Mycosphaerella arachidis, component A alone, 0.00625 ppm): 0%
inhibition at 0.025 ppm ([8]; Mycosphaerella arachidis, component A alone, 0.025 ppm): 70%
inhibition at 0.03 ppm ([8]; Mycosphaerella arachidis, component A alone, 0.03 ppm): 70%
inhibition at 2.25 g/ha [9, 10]: 1%
inhibition at 4.5 g/ha [9, 11]: 10%
Observed Activity (% of untreated) against Phakopsora pachyrhizi ([9]; 18 g/ha): 38% and 77%

Structure (SMILES): CCCc1cnn(-c2ccc(C)c(O/C(=C\OC)C(=O)OC)c2)n1 [X.09, methyl (Z)-3-methoxy-2-[2-methyl-5-(4-propyltriazol-2-yl)phenoxy]prop-2-enoate]
pest or weed control at 200 ppm [1]: ≥ 80%
pest or weed control at 200 ppm [4]: ≥ 80%
pest or weed control at 67 ppm [2]: ≥ 80%
inhibition of growth at 6.7 ppm [3]: ≥ 80%
inhibition at 0.0025 ppm ([6]; Septoria glycines, component A alone, 0.0025 ppm): 70%
inhibition at 0.005 ppm ([6]; Septoria glycines, component A alone, 0.005 ppm): 90%
inhibition at 0.0025 ppm ([7]; Zymoseptoria tritici, 72 h, component A alone, 0.0025 ppm): 70%
inhibition at 0.005 ppm ([7]; Zymoseptoria tritici, 72 h, component A alone, 0.005 ppm): 90%
inhibition at 0.0025 ppm ([8]; Mycosphaerella arachidis, component A alone, 0.0025 ppm): 50%
inhibition at 0.005 ppm ([8]; Mycosphaerella arachidis, component A alone, 0.005 ppm): 90%
inhibition at 2.25 g/ha [9, 10]: 34%
inhibition at 4.5 g/ha ([9]; Phakopsora pachyrhizi, foliar, 4.5 g/ha, read-out: Observed Activity (% of untreated) against Phakopsora pachyrhizi): 94%
inhibition at 4.5 g/ha [9, 11]: 95%
inhibition at 9 g/ha ([9]; Phakopsora pachyrhizi, foliar, 9 g/ha, read-out: Observed Activity (% of untreated) against Phakopsora pachyrhizi): 97%
inhibition at 18 g/ha ([9]; Phakopsora pachyrhizi, foliar, 18 g/ha, read-out: Observed Activity (% of untreated) against Phakopsora pachyrhizi): 97%
Observed Activity (% of untreated) against Phakopsora pachyrhizi ([9]; 4.5 g/ha): 93% and 81% and 82%

Structure (SMILES): CO/C=C(\Oc1cc(-n2ncc(C3CC3)n2)ccc1C)C(=O)OC [X.11, methyl (Z)-2-[5-(4-cyclopropyltriazol-2-yl)-2-methyl-phenoxy]-3-methoxy-prop-2-enoate]
pest or weed control at 200 ppm [1]: ≥ 80%
pest or weed control at 200 ppm [4]: ≥ 80%
pest or weed control at 67 ppm [2]: ≥ 80%
inhibition of growth at 6.7 ppm [3]: ≥ 80%

Structure (SMILES): CO/C=C(\Oc1cc(-n2ncc(C(C)C)n2)ccc1C)C(=O)OC [X.12, methyl (Z)-2-[5-(4-isopropyltriazol-2-yl)-2-methyl-phenoxy]-3-methoxy-prop-2-enoate]
pest or weed control at 200 ppm [1]: ≥ 80%
pest or weed control at 200 ppm [4]: ≥ 80%
pest or weed control at 67 ppm [2]: ≥ 80%
inhibition of growth at 6.7 ppm [3]: ≥ 80%

Structure (SMILES): Cc1ccc(C(=O)OCc2ccc(Oc3ccccc3)cc2)c(N)n1 [aminopyrifen]
Activity (%) B ([5]; component B alone, 0.1 ppm): 20%
Activity (%) B ([5]; component B alone, 0.3 ppm): 50%
Activity (%) B ([6]; 0.1 ppm): 0%
Activity (%) B ([6]; 0.1 ppm, 100-0 scale): 0%
Activity (%) B ([6]; 0.3 ppm, 100-0 scale): 20%
Activity (%) B ([8]; component B alone, 0.1 ppm): 90%
Activity (%) B ([8]; component B alone, 0.3 ppm): 100%

Structure (SMILES): N#Cc1c(Cl)c(Cl)c(Cl)c(C#N)c1Cl [chlorothalonil, reference compound]
inhibition at 0.1 ppm ([5]; Colletotrichum orbiculare, component B alone, 0.1 ppm, read-out: Activity (%) B): 0%
inhibition at 0.3 ppm ([5]; Colletotrichum orbiculare, component B alone, 0.3 ppm, read-out: Activity (%) B): 20%
inhibition at 0.1 ppm ([7]; Zymoseptoria tritici, 72 h, component B alone, 72 hrs, 100=no disease growth, read-out: Activity (%) B): 20%
inhibition at 0.3 ppm ([7]; Zymoseptoria tritici, 72 h, component B alone, 72 hrs, read-out: Activity (%) B): 70%
inhibition at 0.3 ppm ([7]; Zymoseptoria tritici, component B alone, 100-0 scale, read-out: Activity (%) B): 70%
inhibition at 0.1 ppm ([8]; Mycosphaerella arachidis, component B alone, 0.1 ppm): 0%
inhibition at 0.3 ppm ([8]; Mycosphaerella arachidis, component B alone, 0.3 ppm): 90%

Structure (SMILES): COc1ccnc(C(=O)N[C@@H](C)C(=O)O[C@@H](C)C(c2ccc(F)cc2)c2ccc(F)cc2)c1OC(C)=O [florylpicoxamid, reference compound]
Activity (%) B ([6]; 0.01 ppm): 0%
Activity (%) B ([6]; 0.01 ppm, 100-0 scale): 0%
Activity (%) B ([6]; 0.02 ppm): 20%
Activity (%) B ([6]; 0.02 ppm, 100-0 scale): 20%
Activity (%) B ([7]; component B alone, 0.01 ppm, 100-0 scale): 0%
Activity (%) B ([7]; component B alone, 0.01 ppm, 72 hrs): 0%
Activity (%) B ([7]; component B alone, 0.02 ppm, 100-0 scale): 20%
Activity (%) B ([7]; component B alone, 0.02 ppm, 72 hrs): 20%
Activity (%) B ([8]; component B alone, 0.01 ppm): 70%
Activity (%) B ([8]; component B alone, 0.02 ppm): 90%
